From ChEMBL document CHEMBL2406941, “Discovery of 'molecular switches' within a GIRK activator scaffold that afford selective GIRK inhibitors” (Bioorg Med Chem Lett, 2013)
The source made the active and inactive calls. The rule behind the calls is not given here.

Key:
[1] = molecular target: Kir3.2/Kir3.3 (Homo sapiens) (UniProt P48051+Q92806); assay: Activation of GIRK2/3 (unknown origin); assay type: protein-complex assay
[2] = molecular target: T1, Kir3.1/Kir3.4 (Homo sapiens) (UniProt P48549+P48544); assay: Activation of GIRK1/4 (unknown origin) relative to control; assay type: protein-complex assay
[3] = molecular target: T2, Kir3.1/Kir3.2 (Homo sapiens) (UniProt P48549+P48051); assay: Activation of GIRK1/2 (unknown origin) by thallium flux assay relative to control; assay type: protein-complex assay
Kir3.1/Kir3.4 [4] = molecular target: T3, Kir3.1/Kir3.4 (Homo sapiens, UniProt P48544+P48549); assay: Activation of GIRK1/4 (unknown origin); assay type: protein-complex assay
T3 sequence (P48549 whole entry): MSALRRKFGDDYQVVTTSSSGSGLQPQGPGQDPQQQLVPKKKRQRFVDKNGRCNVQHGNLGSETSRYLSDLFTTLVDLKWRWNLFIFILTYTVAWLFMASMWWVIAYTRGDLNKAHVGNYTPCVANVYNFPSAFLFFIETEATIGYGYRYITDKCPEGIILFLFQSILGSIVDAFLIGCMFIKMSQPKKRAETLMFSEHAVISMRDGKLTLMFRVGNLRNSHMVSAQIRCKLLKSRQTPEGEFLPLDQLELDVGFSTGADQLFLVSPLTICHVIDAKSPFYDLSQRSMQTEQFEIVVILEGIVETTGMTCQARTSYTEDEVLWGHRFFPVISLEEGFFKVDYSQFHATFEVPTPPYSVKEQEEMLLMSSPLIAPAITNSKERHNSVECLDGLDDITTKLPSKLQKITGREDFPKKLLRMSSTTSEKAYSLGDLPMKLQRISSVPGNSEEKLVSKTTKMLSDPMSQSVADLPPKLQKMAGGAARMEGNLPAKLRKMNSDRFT
T3 sequence (P48544 whole entry): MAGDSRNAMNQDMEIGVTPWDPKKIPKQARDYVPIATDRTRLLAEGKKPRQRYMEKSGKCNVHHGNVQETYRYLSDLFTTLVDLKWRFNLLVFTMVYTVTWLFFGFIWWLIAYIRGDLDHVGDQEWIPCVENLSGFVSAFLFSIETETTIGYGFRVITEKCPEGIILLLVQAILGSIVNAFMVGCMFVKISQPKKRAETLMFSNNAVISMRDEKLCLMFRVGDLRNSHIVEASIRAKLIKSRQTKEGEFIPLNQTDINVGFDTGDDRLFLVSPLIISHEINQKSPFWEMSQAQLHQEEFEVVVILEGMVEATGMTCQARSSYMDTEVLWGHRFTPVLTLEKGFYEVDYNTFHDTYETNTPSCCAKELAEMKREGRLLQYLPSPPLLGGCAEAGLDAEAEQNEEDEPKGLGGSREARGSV

Kir3.1/Kir3.2 [5] = molecular target: T4, Kir3.1/Kir3.2 (Homo sapiens, UniProt P48051+P48549); assay: Activation of GIRK1/2 (unknown origin) by thallium flux assay; assay type: protein-complex assay
T4 sequence (P48549 whole entry): T3 sequence (P48549 whole entry)
T4 sequence (P48051 whole entry): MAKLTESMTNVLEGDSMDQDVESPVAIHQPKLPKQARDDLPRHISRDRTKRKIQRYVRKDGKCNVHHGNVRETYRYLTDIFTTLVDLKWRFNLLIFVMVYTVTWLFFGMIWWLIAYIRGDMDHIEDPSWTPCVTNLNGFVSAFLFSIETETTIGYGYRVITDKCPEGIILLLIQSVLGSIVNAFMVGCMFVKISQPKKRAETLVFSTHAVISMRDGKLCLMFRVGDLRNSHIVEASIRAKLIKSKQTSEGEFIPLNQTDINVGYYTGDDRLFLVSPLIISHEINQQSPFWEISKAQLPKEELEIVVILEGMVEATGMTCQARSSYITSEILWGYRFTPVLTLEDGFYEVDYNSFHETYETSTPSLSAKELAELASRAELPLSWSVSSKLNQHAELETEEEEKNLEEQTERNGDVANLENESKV

[6] = molecular target: T5, G protein-activated inward rectifier potassium channel 2 (Homo sapiens) (UniProt P48051); assay: Activation of GIRK2 (unknown origin)
T5 sequence (whole entry): T4 sequence (P48051 whole entry)

Kir3.1/Kir3.2 [7] = molecular target: T4, Kir3.1/Kir3.2; assay: Activation of GIRK1/2 (unknown origin); assay type: protein-complex assay
[8] = molecular target: T1, Kir3.1/Kir3.4 (Homo sapiens); assay: Activation of GIRK1/4 (unknown origin) relative to ML297; assay type: protein-complex assay
[9] = molecular target: T2, Kir3.1/Kir3.2 (Homo sapiens); assay: Activation of GIRK1/2 (unknown origin) relative to ML297; assay type: protein-complex assay
[10] = molecular target: T1, Kir3.1/Kir3.4 (Homo sapiens); assay: Inhibition of GIRK1/4 (unknown origin) relative to SCH3320; assay type: protein-complex assay; design: concentration or dose not given beside the values; conditions: concentration not given here
Kir3.1/Kir3.4 [11] = molecular target: T3, Kir3.1/Kir3.4; assay: Inhibition of GIRK1/4 (unknown origin); assay type: protein-complex assay
[12] = molecular target: T2, Kir3.1/Kir3.2 (Homo sapiens); assay: Inhibition of GIRK1/2 (unknown origin) relative to SCH3320; assay type: protein-complex assay; design: concentration or dose not given beside the values; conditions: concentration not given here
Kir3.1/Kir3.2 [13] = molecular target: T4, Kir3.1/Kir3.2; assay: Inhibition of GIRK1/2 (unknown origin); assay type: protein-complex assay
[14] = Inhibition of GIRK (unknown origin); design: species or system Homo sapiens

| SMILES | Activity [1] | EC50 (Kir3.1/Kir3.4 [4]) [µM] | EC50 (Kir3.1/Kir3.2 [7]) [µM] | Efficacy [9] [%] | inhibition [10] [%] | IC50 (Kir3.1/Kir3.4 [11]) [µM] | inhibition [12] [%] | IC50 (Kir3.1/Kir3.2 [13]) [µM] | other results |
| --- | --- | --- | --- | --- | --- | --- | --- | --- | --- |
| Cc1cc(NC(=O)Nc2ccccc2)n(-c2ccccc2)n1 | inactive | 0.69 | – | – | – | – | – | – | Efficacy [2]: 93%; Efficacy [3]: 97%; EC50 (Kir3.1/Kir3.2 [5]): 1.4 µM |
| Cc1cc(NC(=O)Nc2ccc(F)c(F)c2)n(CC(F)(F)F)n1 | inactive | 1.3 | 0.46 | 96 | – | – | – | – | Activity [6]: inactive; Efficacy [8]: 103% |
| Cc1cc(NC(=O)Nc2ccc(F)c(F)c2)n(-c2ccccc2)n1 | inactive | 1.8 | – | – | – | – | – | – | Efficacy [2]: 93%; Efficacy [3]: 194%; EC50 (Kir3.1/Kir3.2 [5]): 0.16 µM |
| Cc1cc(NC(=O)Nc2ccc(F)c(F)c2)n(-c2ccncc2)n1 | inactive | > 30 | > 10 | 88 | – | – | – | – | Activity [6]: inactive |
| O=C(Nc1ccc(F)c(F)c1)Nc1cc(CC2CC2)nn1-c1ccccc1 | inactive | – | – | – | 67 | 0.56 | 95 | 0.65 | Activity [6]: inactive |
| O=C(Nc1cccc(Cl)c1)Nc1cc(C2CCC2)nn1-c1ccccc1 | – | – | – | – | 89 | 0.48 | 64 | 1.4 | – |
| O=C(Nc1cccc(Cl)c1)Nc1cc(CC2CC2)nn1-c1ccccc1 | – | – | – | – | 72 | 0.34 | 76 | 0.63 | – |
| O=C(Nc1ccc(F)c(F)c1)Nc1cc(C2CCC2)nn1-c1ccccc1 | inactive | – | – | – | – | – | – | – | Activity [6]: inactive |
| Cc1cccc(NC(=O)Nc2cc(C3CC3)nn2-c2ccccc2)c1 | – | – | – | – | – | > 30 | 80 | 0.85 | – |
| O=C(Nc1ccc(F)c(Cl)c1)Nc1cc(CC2CC2)nn1-c1ccccc1 | – | – | – | – | 70 | 0.31 | 87 | 0.81 | – |
| O=C(Nc1ccc(F)c(F)c1)Nc1cc(C2CCCC2)nn1-c1ccccc1 | inactive | – | – | – | 88 | 4.1 | 85 | 5.1 | Activity [6]: inactive |
| CC(C)c1cc(NC(=O)Nc2ccc(F)c(F)c2)n(-c2ccccc2)n1 | inactive | – | – | – | 150 | 1.4 | 136 | 2 | Activity [6]: inactive |
| O=C(Nc1ccc(F)c(F)c1)Nc1cc(-c2ccccc2)nn1-c1ccccc1 | inactive | – | > 30 | – | – | – | – | – | Activity [6]: inactive |
| CSc1cccc(NC(=O)Nc2cc(C3CC3)nn2-c2ccccc2)c1 | – | – | – | – | – | > 30 | 86 | 0.95 | – |
| Cc1cc(NC(=O)Nc2ccc(F)c(F)c2)n(-c2ccc(F)cc2)n1 | inactive | 0.54 | 0.19 | 78 | – | – | – | – | Activity [6]: inactive; Efficacy [8]: 57% |
| O=C(Nc1cccc(Cl)c1)Nc1cc(C2CC2)nn1-c1ccccc1 | – | 0.72 | 1.4 | 37 | – | – | – | – | Efficacy [8]: 39% |
| O=C(Nc1ccc(F)cc1)Nc1cc(C2CC2)nn1Cc1ccccc1 | – | 0.57 | 0.35 | 57 | – | – | – | – | Efficacy [8]: 90% |
| Cc1cc(NC(=O)Nc2ccc(F)c(F)c2)n(-c2ccccn2)n1 | inactive | > 30 | > 10 | 78 | – | – | – | – | Activity [6]: inactive |
| O=C(Nc1ccc(F)c(F)c1)Nc1cc(C2CC2)nn1-c1ccccc1 | inactive | – | 0.41 | 32 | – | – | – | – | Activity [6]: inactive |
| CC(C)c1cc(NC(=O)Nc2cccc(C(F)(F)F)c2)n(Cc2ccccc2)n1 | – | 3.5 | 1.7 | 38 | – | – | – | – | Efficacy [8]: 10% |
| CC(C)c1cc(NC(=O)Nc2cccc(C(F)(F)F)c2)n(-c2ccccc2)n1 | – | – | – | – | 100 | 1.3 | 62 | 2.1 | – |

| SMILES | Activity [1] | EC50 (Kir3.1/Kir3.4 [4]) [µM] | EC50 (Kir3.1/Kir3.2 [7]) [µM] | Efficacy [9] [%] | inhibition [10] [%] | IC50 (Kir3.1/Kir3.4 [11]) [µM] | inhibition [12] [%] | IC50 (Kir3.1/Kir3.2 [13]) [µM] | other results |
| --- | --- | --- | --- | --- | --- | --- | --- | --- | --- |
| CC(C)c1cc(NC(=O)Nc2cccc(Cl)c2)n(Cc2ccccc2)n1 | – | 1.7 | 0.47 | 35 | – | – | – | – | Efficacy [8]: 23% |
| Cc1ccc(NC(=O)Nc2cc(C3CC3)nn2Cc2ccccc2)cc1 | – | 0.92 | 0.57 | 35 | – | – | – | – | Efficacy [8]: 46% |
| O=C(Nc1cccc(Br)c1)Nc1cc(C2CCC2)nn1-c1ccccc1 | – | – | – | – | 69 | 0.72 | 51 | 1.9 | – |
| Cc1cccc(NC(=O)Nc2cc(C(C)C)nn2-c2ccccc2)c1 | – | – | – | – | 67 | 0.85 | 93 | 2.6 | – |
| O=C(Nc1cccc(C(F)(F)F)c1)Nc1cc(CC2CC2)nn1-c1ccccc1 | – | – | – | – | 45 | 0.25 | 88 | 0.54 | – |
| O=C(Nc1cccc(F)c1)Nc1cc(CC2CC2)nn1-c1ccccc1 | – | – | – | – | 72 | 0.18 | 75 | 0.45 | – |
| Cc1ccc(NC(=O)Nc2cc(C(C)C)nn2-c2ccccc2)cc1 | – | – | – | – | 62 | 1.8 | 100 | 3.9 | – |
| O=C(Nc1ccc(F)c(Cl)c1)Nc1cc(C2CC2)nn1Cc1ccccc1 | – | 0.32 | 0.21 | 47 | – | – | – | – | Efficacy [8]: 83% |
| CN1CCc2cc(Cl)c(O)cc2[C@@H](c2ccccc2)C1 [SCH-23390] | – | – | – | – | – | – | – | – | IC50 [14]: 4 µM |
| O=C(Nc1ccc(F)cc1)Nc1cc(CC2CC2)nn1-c1ccccc1 | – | – | – | – | 54 | 0.27 | 80 | 0.64 | – |
| O=C(Nc1cccc(Br)c1)Nc1cc(C2CC2)nn1Cc1ccccc1 | – | 0.79 | 0.38 | 44 | – | – | – | – | Efficacy [8]: 65% |
| CC(C)c1cc(NC(=O)Nc2cccc(F)c2)n(-c2ccccc2)n1 | – | – | – | – | 70 | 0.78 | 77 | 2.1 | – |
| O=C(Nc1cccc(C(F)(F)F)c1)Nc1cc(C2CCC2)nn1-c1ccccc1 | – | – | – | – | 84 | 0.69 | 65 | 1.3 | – |
| O=C(Nc1ccc(F)c(Cl)c1)Nc1cc(C2CCC2)nn1-c1ccccc1 | – | – | – | – | 69 | 0.61 | 70 | 1.9 | – |
| O=C(Nc1cccc(F)c1)Nc1cc(C2CC2)nn1-c1ccccc1 | – | – | – | – | – | > 30 | 60 | 1.2 | – |
| Cc1cc(NC(=O)Nc2ccc(F)c(F)c2)n(Cc2ccccc2)n1 | inactive | 0.11 | 0.07 | 87 | – | – | – | – | Activity [6]: inactive; Efficacy [8]: 99% |
| O=C(Nc1ccc(F)c(F)c1)Nc1cc(C(F)(F)F)nn1-c1ccccc1 | inactive | – | – | – | – | – | – | – | Activity [6]: inactive |
| O=C(Nc1cccc(F)c1)Nc1cc(C2CC2)nn1Cc1ccccc1 | – | 0.78 | 0.53 | 46 | – | – | – | – | Efficacy [8]: 85% |
| Cc1cccc(NC(=O)Nc2cc(CC3CC3)nn2-c2ccccc2)c1 | – | – | – | – | 47 | 0.25 | 83 | 0.52 | – |
| O=C(Nc1cccc(C(F)(F)F)c1)Nc1cc(C2CC2)nn1Cc1ccccc1 | – | 0.65 | 0.34 | 35 | – | – | – | – | Efficacy [8]: 39% |
